In brackets after ≈: the same amount, converted by molar mass. Where only a bound is given, the exact number is not on record here.

The subject of assay [1] is Pseudomonas fluorescens. Put plainly: Antimicrobial activity against Pseudomonas fluorescens CGMCC1.1828 after 24 hrs by modified microdilution method. Type of assay: functional. The note with it: CGMCC1.1828, 24 h.
For assay [2], the system named is Aspergillus niger. As to the kind of experiment: Antimicrobial activity against Aspergillus niger CGMCC3.316 after 48 hrs by modified microdilution method. Conditions: CGMCC3.316, 48 h. Type of assay: functional. For orientation: Dilution methods test growth across graded concentrations, often in twofold steps.
For assay [3], the system named is HepG2. As to the kind of experiment: Cytotoxicity against human HepG2 cells assessed as cell survival after 48 hrs by MTT assay. Type of assay: functional, cell-based. Conditions: HepG2, 48 h. On the technique in general: Formazan colour is commonly taken as a measure of viable cells.
The test system of assay [4] is Candida tropicalis. Put plainly: Antimicrobial activity against Candida tropicalis CGMCC2.3967 after 48 hrs by modified microdilution method. Type of assay: functional. Conditions: CGMCC2.3967, 48 h.
Assay [5] can be described thus: Cytotoxicity against human […] cells assessed as cell survival after 48 hrs by MTT assay. Type of assay: functional, cell-based.
Assay [6] has as its system Candida albicans. As to the kind of experiment: Antimicrobial activity against Candida albicans CGMCC2.2086 after 48 hrs by modified microdilution method. Type of assay: functional. The note with it: CGMCC2.2086, 48 h.
For assay [7], the system named is Staphylococcus aureus. As to the kind of experiment: Antimicrobial activity against Staphylococcus aureus CGMCC1.1361 after 24 hrs by modified microdilution method. Conditions: CGMCC1.1361, 24 h. Type of assay: functional.
For assay [8], the system named is Bacillus subtilis. Put plainly: Antimicrobial activity against Bacillus subtilis CGMCC1.1162 after 24 hrs by modified microdilution method. Conditions: CGMCC1.1162, 24 h. Type of assay: functional.
Assay [9] relates to Escherichia coli. As to the kind of experiment: Antimicrobial activity against Escherichia coli CGMCC1.1571 after 24 hrs by modified microdilution method. Type of assay: functional. Conditions: CGMCC1.1571, 24 h.
Assay [10] is described as follows: Cytotoxicity against human LO2 cells assessed as cell survival after 48 hrs by MTT assay. Type of assay: cell-based. Conditions: L02, 48 h.

Take `CCOc1ccc2[nH]c3c(c2c1)C[C@]1(C)[C@H]2CC=C4[C@@H]5[C@@H](C)[C@H](C)CC[C@]5(C(=O)NCCCN(C)C)CC[C@@]4(C)[C@]2(C)CC[C@H]1C3(C)C`: the MIC in assay [1] is 62.5 µg/mL (≈ 95.3 µM); in [2], over 100 µg/mL; in assay [4], over 100 µg/mL; in [6] it was over 100 µg/mL; in assay [7] it was 62.5 µg/mL (≈ 95.3 µM); in [8], 31.2 µg/mL (≈ 47.6 µM). Moreover, 31.2 µg/mL (≈ 47.6 µM) was the least that counted as inhibitory in assay [9] (MIC). Further, the results for the IC50 in assay [3] and in [5] were 6.25 µM and 4.88 µM, respectively.
For the compound `COC(=O)[C@]12CC[C@@H](C)[C@H](C)[C@H]1C1=CC[C@@H]3[C@@]4(C)Cc5c([nH]c6ccccc56)C(C)(C)[C@@H]4CC[C@@]3(C)[C@]1(C)CC2`, the MIC was 62.5 µg/mL (≈ 115 µM) in assay [1]; 62.5 µg/mL (≈ 115 µM) in [2]; 62.5 µg/mL (≈ 115 µM) in [4]; 62.5 µg/mL (≈ 115 µM) in assay [6]; 15.6 µg/mL (≈ 28.8 µM) in [7]; 31.2 µg/mL (≈ 57.6 µM) in assay [8]. Besides, the MIC in [9] was 31.2 µg/mL (≈ 57.6 µM). For the same compound, the IC50 in assay [3] and in assay [5] was over 100 µM in each case.
With `C[C@H]1[C@H](C)CC[C@]2(C(=O)O)CC[C@]3(C)C(=CC[C@@H]4[C@@]5(C)Cc6c([nH]c7ccc(Cl)cc67)C(C)(C)[C@@H]5CC[C@]43C)[C@H]12`, the MIC in assay [1] was 31.2 µg/mL (≈ 55.5 µM); in assay [2], over 100 µg/mL; in assay [4], over 100 µg/mL; in assay [6], over 100 µg/mL; in assay [7] it was 31.2 µg/mL (≈ 55.5 µM); in [8], 31.2 µg/mL (≈ 55.5 µM). The compound further yielded an MIC in assay [9] of 31.2 µg/mL (≈ 55.5 µM). The IC50 turned out to be 30.9 µM in assay [3] and 29.9 µM in assay [5].
For `CCOc1ccc2[nH]c3c(c2c1)C[C@]1(C)[C@H]2CC=C4[C@@H]5[C@@H](C)[C@H](C)CC[C@]5(C(=O)O)CC[C@@]4(C)[C@]2(C)CC[C@H]1C3(C)C`, the MIC is 62.5 µg/mL (≈ 109 µM) in [1]; over 100 µg/mL in assay [2]; over 100 µg/mL in assay [4]; over 100 µg/mL in assay [6]; 62.5 µg/mL (≈ 109 µM) in assay [7]; 62.5 µg/mL (≈ 109 µM) in [8]. In addition, the MIC in assay [9] was found to be 62.5 µg/mL (≈ 109 µM). For the same compound, the IC50 in [3] is 33 µM; in assay [5], 24.5 µM.
`Cc1ccc2[nH]c3c(c2c1)C[C@]1(C)[C@H]2CC=C4[C@@H]5[C@@H](C)[C@H](C)CC[C@]5(C(=O)NCCCN(C)C)CC[C@@]4(C)[C@]2(C)CC[C@H]1C3(C)C`: the MIC in [1] was 31.2 µg/mL (≈ 49.8 µM); in assay [2], 62.5 µg/mL (≈ 99.8 µM); in [4], over 100 µg/mL; in assay [6], over 100 µg/mL; in assay [7], 31.2 µg/mL (≈ 49.8 µM); in assay [8], 15.6 µg/mL (≈ 24.9 µM). This compound also came in with an MIC in assay [9] of 31.2 µg/mL (≈ 49.8 µM). Also, the results for the IC50 in [3], in assay [5] and in assay [10] were 1.26 µM, 1.08 µM and 5.75 µM, respectively.
Take `COC(=O)[C@]12CC[C@@H](C)[C@H](C)[C@H]1C1=CC[C@@H]3[C@@]4(C)Cc5c([nH]c6ccc(Br)cc56)C(C)(C)[C@@H]4CC[C@@]3(C)[C@]1(C)CC2`: the MIC in [1] is 62.5 µg/mL (≈ 101 µM); in [2], over 100 µg/mL; in assay [4], over 100 µg/mL; in assay [6], over 100 µg/mL; in assay [7] it was 31.2 µg/mL (≈ 50.3 µM); in assay [8], 62.5 µg/mL (≈ 101 µM). This compound also showed an MIC in [9] of over 100 µg/mL. For the same compound, the IC50 in [3] and in assay [5] was over 100 µM in each case.
With `COc1cccc2c3c([nH]c12)C(C)(C)[C@@H]1CC[C@]2(C)[C@H](CC=C4[C@@H]5[C@@H](C)[C@H](C)CC[C@]5(C(=O)O)CC[C@]42C)[C@@]1(C)C3`, the MIC in [1] is 62.5 µg/mL (≈ 112 µM); in assay [2], over 100 µg/mL; in assay [4], over 100 µg/mL; in assay [6], over 100 µg/mL; in assay [7] it was 62.5 µg/mL (≈ 112 µM); in assay [8], 62.5 µg/mL (≈ 112 µM). In [9], this compound gave an MIC of 62.5 µg/mL (≈ 112 µM). Besides, the IC50 in [3] and in assay [5] was over 100 µM each time.
Turning to `COC(=O)[C@]12CC[C@@H](C)[C@H](C)[C@H]1C1=CC[C@@H]3[C@@]4(C)Cc5c([nH]c6ccc(Cl)cc56)C(C)(C)[C@@H]4CC[C@@]3(C)[C@]1(C)CC2`, the MIC is 62.5 µg/mL (≈ 108 µM) in [1]; 62.5 µg/mL (≈ 108 µM) in assay [2]; over 100 µg/mL in assay [4]; over 100 µg/mL in assay [6]; 62.5 µg/mL (≈ 108 µM) in [7]; 31.2 µg/mL (≈ 54.1 µM) in assay [8]. The same compound came in with an MIC in assay [9] of over 100 µg/mL. For the same compound, the IC50 in assay [3] and in assay [5] was over 100 µM throughout.
In the case of `C[C@H]1[C@H](C)CC[C@]2(C(=O)NCCCN(C)C)CC[C@]3(C)C(=CC[C@@H]4[C@@]5(C)Cc6c([nH]c7ccc(F)cc67)C(C)(C)[C@@H]5CC[C@]43C)[C@H]12`, the MIC in assay [1] stood at 7.8 µg/mL (≈ 12.4 µM); in assay [2], 31.2 µg/mL (≈ 49.5 µM); in [4], 31.2 µg/mL (≈ 49.5 µM); in assay [6] it was 31.2 µg/mL (≈ 49.5 µM); in assay [7], 7.8 µg/mL (≈ 12.4 µM); in assay [8] it was 3.9 µg/mL (≈ 6.19 µM). In addition, the MIC in assay [9] is 7.8 µg/mL (≈ 12.4 µM). For the same compound, the figures for the IC50 in assay [3] and in [5] were 6.03 µM and 4.6 µM, respectively.

As usually defined, the MIC is the smallest concentration in the dilution series that meets the test's criterion for growth inhibition. High values mean weaker potency, low ones greater potency. As a reminder, the IC50 is the concentration that gives 50% inhibition.

Source of the values: ChEMBL document CHEMBL3351749, “Synthesis, in vitro antimicrobial and cytotoxic activities of new carbazole derivatives of ursolic acid” (Bioorg Med Chem Lett, 2015).
